# Results published in patent US6737383B1, “Herbicidal oxadiazolidines” (priority 1999, dated 2004).
# Experiments:
# [1] = test system: bedstraw; test: Test B pre/postemergence bedstraw; assay type: in vivo, Galium aparine
# Outline: (§1)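 Herbicidal effect was estimated by eye on a ten-point control scale after plants spent twelve to sixteen days in a greenhouse following soil or foliar treatment. Foliar sprays targeted plants at one to four leaves; all doses were formulated in a non-phytotoxic solvent with surfactant.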
# [2] = test system: blackgrass; test: Test B pre/postemergence blackgrass; assay type: in vivo, Alopecurus myosuroides
# Outline: as §1
# [3] = test system: surinam grass; test: Test B pre/postemergence surinam grass; assay type: in vivo, Brachiaria decumbens
# Outline: as §1
# [4] = test system: cocklebur; test: Test B pre/postemergence cocklebur; assay type: in vivo, Xanthium strumarium; details: for Cocklebur plant response rating: scale of 0 to 10 where 0 is no effect and 10 is complete control
# Outline: as §1
# [5] = test system: corn; test: Test B pre/postemergence corn; assay type: in vivo, Zea mays; details: for Corn plant response rating: scale of 0 to 10 where 0 is no effect and 10 is complete control
# Outline: as §1
# [6] = test system: crabgrass; test: Test B pre/postemergence crabgrass; assay type: in vivo, Digitaria sanguinalis; details: for Crabgrass plant response rating: scale of 0 to 10 where 0 is no effect and 10 is complete control
# Outline: as §1
# [7] = test system: giant foxtail; test: Test B pre/postemergence giant foxtail; assay type: in vivo, Setaria faberii; details: for Giant foxtail plant response rating: scale of 0 to 10 where 0 is no effect and 10 is complete control
# Outline: as §1
# [8] = test system: morningglory; test: Test B pre/postemergence morningglory; assay type: in vivo, Ipomoea hederacea; details: for Morningglory plant response rating: scale of 0 to 10 where 0 is no effect and 10 is complete control
# Outline: as §1
# [9] = test system: pigweed; test: Test B pre/postemergence pigweed; assay type: in vivo, Amaranthus retroflexus; details: for Redroot pigweed plant response rating: scale of 0 to 10 where 0 is no effect and 10 is complete control
# Outline: as §1
# [10] = test system: rape; test: Test B pre/postemergence rape; assay type: in vivo, Brassica napus; details: for Rape plant response rating: scale of 0 to 10 where 0 is no effect and 10 is complete control
# Outline: as §1
# [11] = test system: soybean; test: Test B pre/postemergence soybean; assay type: in vivo, Glycine max; details: for Soybean plant response rating: scale of 0 to 10 where 0 is no effect and 10 is complete control
# Outline: as §1
# [12] = test system: sugar beet; test: Test B pre/postemergence sugar beet; assay type: in vivo, Beta vulgaris; details: for Sugarbeets plant response rating: scale of 0 to 10 where 0 is no effect and 10 is complete control
# Outline: as §1
# [13] = test system: velvetleaf; test: Test B pre/postemergence velvetleaf; assay type: in vivo, Abutilon theophrasti; details: for Velvetleaf plant response rating: scale of 0 to 10 where 0 is no effect and 10 is complete control
# Outline: as §1
# [14] = test system: wheat; test: Test B pre/postemergence wheat; assay type: in vivo, Triticum aestivum; details: for Wheat plant response rating: scale of 0 to 10 where 0 is no effect and 10 is complete control
# Outline: as §1
# [15] = test system: wild oat; test: Test B pre/postemergence wild oat; assay type: in vivo, Avena fatua; details: for Wild oats plant response rating: scale of 0 to 10 where 0 is no effect and 10 is complete control
# Outline: as §1
# [16] = test system: purple nutsedge; test: Test B pre/postemergence purple nutsedge; assay type: in vivo, Cyperus rotundus; details: for Nutsedge plant response rating: scale of 0 to 10 where 0 is no effect and 10 is complete control
# Outline: as §1
# [17] = test system: rice; test: Test B flood test rice; assay type: in vivo, Oryza sativa
# Outline: (§2)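 Flood test on plants grown to the 2-leaf stage; treated plants kept in greenhouse twelve to sixteen days, then visually rated against controls on a 0 (no effect) to 10 (complete control) scale.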
# [18] = test system: smallflower flatsedge; test: Test B flood test smallflower flatsedge; assay type: in vivo, Cyperus difformis
# Outline: as §2
# [19] = test system: duck salad; test: Test B flood test duck salad; assay type: in vivo, Heteranthera limosa
# Outline: as §2
# [20] = test system: bamyardgrass; test: Test B flood test barnyardgrass; assay type: in vivo, Echinochloa crus-galli
# Outline: as §2
# [21] = Postemergence, Rate 125 g/ha, scale 0 to 10, 0 is no effect, 10 is complete control
# [22] = Preemergence, Rate 62 g/ha, scale 0 to 10 (0 no effect, 10 complete control)
# [23] = Preemergence, Rate 500 g/ha, scale of 0 to 10 where 0 is no effect and 10 is complete control
# [24] = Rate 62 g/ha, Postemergence, scale of 0 to 10 where 0 is no effect and 10 is complete control
# [25] = Rate 250 g/ha, Postemergence, scale of 0 to 10 where 0 is no effect and 10 is complete control
# [26] = Rate 500 g/ha, Postemergence, scale 0 to 10, 0 no effect, 10 complete control
# [27] = Preemergence, Rate 250 g/ha, scale of 0 to 10 where 0 is no effect and 10 is complete control
# [28] = Postemergence (flood test), Rate 125 g/ha, scale 0 to 10, 0 is no effect, 10 is complete control
# [29] = Rate 500 g/ha, listed under Postemergence (flood test species), scale 0 to 10, 0 no effect, 10 complete control
structure (smiles),measurement,setting,value
CC(C)C(C)n1c(=O)on(C(=O)N(c2ccc(F)cc2F)C(C)C)c1=O (centres unmarked) [Compound 356],"Plant response rating, Bedstraw",[1]; [21],0
same,"Plant response rating, Bedstraw",[1]; [22],0
same,Bedstraw plant response rating (0 to 10 scale),"[1]; Preemergence, Rate 125 g/ha",0
same,Bedstraw plant response rating,[1]; [23],9
same,Bedstraw plant response rating,[1]; [24],0
same,"Plant response rating, Bedstraw",[1]; [25],3
same,"Plant response rating, Bedstraw",[1]; [26],3
same,"Plant response rating, Blackgrass",[2]; [21],6
same,"Plant response rating, Blackgrass",[2]; [22],5
same,Blackgrass plant response rating (0 to 10 scale),"[2]; Preemergence, Rate 125 g/ha",6
same,Blackgrass plant response rating,[2]; [27],9
same,Blackgrass plant response rating,[2]; [23],9
same,Blackgrass plant response rating,[2]; [24],3
same,"Plant response rating, Blackgrass",[2]; [25],6
same,"Plant response rating, Blackgrass",[2]; [26],7
same,"Plant response rating, B. signalgrass",[3]; [21],0
same,"Plant response rating, B. signalgrass",[3]; [22],0
same,"B. signalgrass plant response rating (0 to 10 scale, 0 is no effect, 10 is complete control)","[3]; Preemergence, Rate 125 g/ha",3
same,B. signalgrass plant response rating,[3]; [27],5
same,B. signalgrass plant response rating,[3]; [23],5
same,B. signalgrass plant response rating,[3]; [24],0
same,"Plant response rating, B. signalgrass",[3]; [25],1
same,"Plant response rating, B. signalgrass",[3]; [26],1
same,"Plant response rating, Cocklebur",[4]; [21],0
same,Cocklebur plant response rating (0 to 10 scale),"[4]; Preemergence, Rate 125 g/ha",0
same,Cocklebur plant response rating,"[4]; Preemergence, Rate 250 g/ha",0
same,Cocklebur plant response rating,"[4]; Preemergence, Rate 500 g/ha",0
same,Cocklebur plant response rating,"[4]; Rate 62 g/ha, Postemergence",0
same,"Plant response rating, Cocklebur",[4]; [26],0
same,"Plant response rating, Corn",[5]; [21],0
same,"Plant response rating, Corn",[5]; [22],0
same,Corn plant response rating (0 to 10 scale),"[5]; Preemergence, Rate 125 g/ha",0
same,Corn plant response rating,"[5]; Preemergence, Rate 250 g/ha",2
same,Corn plant response rating,"[5]; Preemergence, Rate 500 g/ha",6
same,Corn plant response rating,"[5]; Rate 62 g/ha, Postemergence",0
same,"Plant response rating, Corn",[5]; [26],3
same,"Plant response rating, Crabgrass",[6]; [21],0
same,"Plant response rating, Crabgrass",[6]; [22],7
same,Crabgrass plant response rating (0 to 10 scale),"[6]; Preemergence, Rate 125 g/ha",8
same,Crabgrass plant response rating,"[6]; Preemergence, Rate 250 g/ha",9
same,Crabgrass plant response rating,"[6]; Preemergence, Rate 500 g/ha",10
same,Crabgrass plant response rating,"[6]; Rate 62 g/ha, Postemergence",0
same,"Plant response rating, Crabgrass",[6]; [26],3
same,"Plant response rating, Giant foxtail",[7]; [21],4
same,"Plant response rating, Giant foxtail",[7]; [22],10
same,Giant foxtail plant response rating (0 to 10 scale),"[7]; Preemergence, Rate 125 g/ha",10
same,Giant foxtail plant response rating,"[7]; Preemergence, Rate 250 g/ha",10
same,Giant foxtail plant response rating,"[7]; Preemergence, Rate 500 g/ha",10
same,Giant foxtail plant response rating,"[7]; Rate 62 g/ha, Postemergence",2
same,"Plant response rating, Giant foxtail",[7]; [26],8
same,"Plant response rating, Morningglory",[8]; [21],6
same,"Plant response rating, Morningglory",[8]; [22],0
same,Morningglory plant response rating (0 to 10 scale),"[8]; Preemergence, Rate 125 g/ha",0
same,Morningglory plant response rating,"[8]; Preemergence, Rate 250 g/ha",0
same,Morningglory plant response rating,"[8]; Preemergence, Rate 500 g/ha",0
same,Morningglory plant response rating,"[8]; Rate 62 g/ha, Postemergence",4
same,"Plant response rating, Morningglory",[8]; [26],10
same,"Plant response rating, Redroot pigweed",[9]; [21],0
same,"Plant response rating, Redroot pigweed",[9]; [22],0
same,Redroot pigweed plant response rating (0 to 10 scale),"[9]; Preemergence, Rate 125 g/ha",4
same,Redroot pigweed plant response rating,"[9]; Preemergence, Rate 250 g/ha",8
same,Redroot pigweed plant response rating,"[9]; Preemergence, Rate 500 g/ha",10
same,Redroot pigweed plant response rating,"[9]; Rate 62 g/ha, Postemergence",0
same,"Plant response rating, Redroot pigweed",[9]; [26],0
same,"Plant response rating, Rape",[10]; [21],0
same,"Plant response rating, Rape",[10]; [22],0
same,Rape plant response rating (0 to 10 scale),"[10]; Preemergence, Rate 125 g/ha",2
same,Rape plant response rating,"[10]; Preemergence, Rate 250 g/ha",4
same,Rape plant response rating,"[10]; Preemergence, Rate 500 g/ha",5
same,Rape plant response rating,"[10]; Rate 62 g/ha, Postemergence",0
same,"Plant response rating, Rape",[10]; [26],0
same,"Plant response rating, Soybean",[11]; [21],3
same,"Plant response rating, Soybean",[11]; [22],0
same,Soybean plant response rating (0 to 10 scale),"[11]; Preemergence, Rate 125 g/ha",0
same,Soybean plant response rating,"[11]; Preemergence, Rate 250 g/ha",0
same,Soybean plant response rating,"[11]; Preemergence, Rate 500 g/ha",0
same,Soybean plant response rating,"[11]; Rate 62 g/ha, Postemergence",2
same,"Plant response rating, Soybean",[11]; [26],5
same,"Plant response rating, Sugarbeets",[12]; [21],0
same,"Plant response rating, Sugarbeets",[12]; [22],0
same,Sugarbeets plant response rating (0 to 10 scale),"[12]; Preemergence, Rate 125 g/ha",0
same,Sugarbeets plant response rating,"[12]; Preemergence, Rate 250 g/ha",2
same,Sugarbeets plant response rating,"[12]; Preemergence, Rate 500 g/ha",5
same,Sugarbeets plant response rating,"[12]; Rate 62 g/ha, Postemergence",0
same,"Plant response rating, Sugarbeets",[12]; [26],0
same,"Plant response rating, Velvetleaf",[13]; [21],0
same,"Plant response rating, Velvetleaf",[13]; [22],1
same,Velvetleaf plant response rating (0 to 10 scale),"[13]; Preemergence, Rate 125 g/ha",2
same,Velvetleaf plant response rating,"[13]; Preemergence, Rate 250 g/ha",3
same,Velvetleaf plant response rating,"[13]; Preemergence, Rate 500 g/ha",5
same,Velvetleaf plant response rating,"[13]; Rate 62 g/ha, Postemergence",0
same,"Plant response rating, Velvetleaf",[13]; [26],0
same,"Plant response rating, Wheat",[14]; [21],3
same,"Plant response rating, Wheat",[14]; [22],0
same,Wheat plant response rating (0 to 10 scale),"[14]; Preemergence, Rate 125 g/ha",0
same,Wheat plant response rating,"[14]; Preemergence, Rate 250 g/ha",0
same,Wheat plant response rating,"[14]; Preemergence, Rate 500 g/ha",6
same,Wheat plant response rating,"[14]; Rate 62 g/ha, Postemergence",2
same,"Plant response rating, Wheat",[14]; [26],4
same,"Plant response rating, Wild oats",[15]; [21],3
same,"Plant response rating, Wild oats",[15]; [22],5
same,Wild oats plant response rating (0 to 10 scale),"[15]; Preemergence, Rate 125 g/ha",7
same,Wild oats plant response rating,"[15]; Preemergence, Rate 250 g/ha",10
same,Wild oats plant response rating,"[15]; Rate 62 g/ha, Postemergence",2
same,"Plant response rating, Wild oats",[15]; [26],3
same,"Plant response rating, Nutsedge",[16]; [21],0
same,"Plant response rating, Nutsedge",[16]; [22],0
same,Nutsedge plant response rating (0 to 10 scale),"[16]; Preemergence, Rate 125 g/ha",0
same,Nutsedge plant response rating,"[16]; Preemergence, Rate 250 g/ha",0
same,Nutsedge plant response rating,"[16]; Preemergence, Rate 500 g/ha",0
same,Nutsedge plant response rating,"[16]; Rate 62 g/ha, Postemergence",0
same,"Plant response rating, Nutsedge",[16]; [26],0
same,"Plant response rating, Rice",[17]; [28],0
same,Rice plant response rating,"[17]; Rate 62 g/ha, Postemergence (flood test species), scale of 0 to 10 where 0 is no effect and 10 is complete control",0
same,"Plant response rating, Rice",[17]; [29],0
same,"Plant response rating, S. Flatsedge",[18]; [28],4
same,"Plant response rating, S. Flatsedge",[18]; [29],7
same,"Plant response rating, Ducksalad",[19]; [28],0
same,"Plant response rating, Ducksalad",[19]; [29],2
same,"Plant response rating, Barnyardgrass",[20]; [28],0
same,"Plant response rating, Barnyardgrass","[20]; Rate 250 g/ha, Postemergence (flood test species), scale of 0 to 10 where 0 is no effect and 10 is complete control",7
same,"Plant response rating, Barnyardgrass",[20]; [29],7
